Literature values as cited in patent publication US10260097B2, “Method of using a gene expression profile to determine cancer responsiveness to an anti-angiogenic agent” (Almac Diagnostics Limited, priority 2011, dated 2019).

Key:
ovarian cancer patients = ovarian cancer patients receiving bevacizumab monotherapy
renal cancer patients = renal cancer patients receiving bevacizumab monotherapy
rectal cancer patients = rectal cancer patients receiving bevacizumab monotherapy
most cancers = conditions: bevacizumab added to cytotoxic chemotherapy

bevacizumab
patients showing partial regression (ovarian cancer patients): 21% | patients showing partial regression (renal cancer patients): 10% | patients showing partial regression (rectal cancer patients): 33% | overall survival (OS) benefit (most cancers): no overall survival (OS) benefit
